From patent US20110077230A1, “COPPER ORGANOCOMPLEXES, USE THEREOF AS ANTITUMOR MEANS AND FOR PROTECTING HEALTHY TISSUE FROM IONIZING RADIATION” (CHARITE - UNIVERSITATSMEDIZIN BERLIN, priority 2008, published 2011)

Tests used:
[1] = tested on: Human lymphoma cells (BJAB); assay: In vivo inhibition of tumor growth, BJAB implanted in SCID mice; details: 10 mg/kg peroral, suspended in olive oil
Description: Human lymphoma cells (BJAB) were implanted in six SCID mice. After a tumor with a diameter of 5 mm had formed, the mice were subjected to peroral treatment with complex A at a dose of 10 mg/kg, suspended in olive oil. The control group consisted of 10 animals treated with olive oil only.
* denotes the significance (p≦0.05) in the Mann-Whitney U-test.

[2] = tested on: Ehrlich ascites adenocarcinoma; assay: Ehrlich ascites adenocarcinoma in mice; type: in vivo, white mice
Description: The tumor was implanted intraabdominally in white mice of no particular race.
Group I received complex A orally as a suspension in olive oil at a dosage of 10 mg/kg 3, 4, 5, 6, 7, 8, 9 and 10 days after tumor implantation.
Group II received the same treatment, but using sarcolysine instead of complex A.
Group III received no treatment.
The animals were sacrificed and examined on the 11th day after tumor implantation.

[3] = Solubility and stability of the complexes
[4] = tested on: Ehrlich ascites carcinoma (EAC) cells; assay: NADH state (fluorescence) in EAC cells; type: cell-based, mice
Description: (§1) The Ehrlich ascites carcinoma (EAC) was obtained from white male mice of the strain MNR1 and the thymocytes from the thymus of rats of the Wistar line. Vitality of the cells was tested by vital staining using trypan blue and experiments and determined to be no less than 95% in all experiments. The NADH state in the EAC cells was assessed with reference to their fluorescence intensity. Measurement of the intracellular calcium concentration was performed according to the standard methodology of fluorescence using chlortetracycline. The membrane potential was measured using the fluorescent dye No. 1104. NADH is a source of electrons in the oxidative phosphorylation process. […] These effects are directed to inhibiting the NAD-dependent dehydrogenase. As a result, the respiratory chain in the tumor cells is inhibited.

[5] = tested on: Hep-2 tumor cells of human laryngeal carcinoma; assay: Copper uptake by Hep-2 cells (EPR); type: cell-based
Description: Complex A dissolved in Tween 80 was mixed with liposomes from lecithin. This mixture was added with a culture of Hep-2 cells, and the EPR spectra were recorded over time. A culture having no complex A preparation was measured for comparison. The EPR spectra allow quantitative determination of the copper content in the tumor cells. […] This corresponds to an intake of 10 copper-containing molecules in a cell. This saturation value of the cells is reached within 1.5 to 2 hours (FIG. 21). In addition, the cell suspension was purified by filtration, and the filtrate containing the cellular components was fractionated using a centrifuge.

thymocytes = assay: Membrane potential of thymocytes (fluorescent dye); type: cell-based, rats of the Wistar line
Description: as §1
Moreover, the complexes A and C have an influence on the membrane potential of thymocytes.

## Copper-sarcolysine hydrochloride complex [complex A]
[1]
  inhibition of tumor growth: significant inhibition of tumor growth
[2]; 10 mg/kg orally
  % inhibition: 75.3%
  Average MI of bone marrow: 0.95 ± 0.47 ‰
  Average MI of tumor cells: 1.0 ± 0.7 ‰
[2]; 10 mg/kg orally in olive oil, days 3 to 10, day 11
  Average number of tumor cells: 40′ 10^6
[3]; dimethyl sulfoxide (DMSO)
  solubility in DMSO: dissolves
[3]; most / many organic solvents
  solubility in organic solvents: insoluble
[3]; room temperature, even when exposed to oxygen
  stability at room temperature: stable
[3]; water
  solubility in water: insoluble
[4]
  response to oligomycin: reduce the response to oligomycin
[5]; complex A in Tween 80 with lecithin liposomes, saturation value
  copper absorbed by Hep-2 cells: 4.5×10^13 spin per gram
[5]; corresponds to the spin value
  intake of copper-containing molecules in a cell: 10 molecules in a cell
[5]; fractionated filtrate, EPR signal of copper
  intracellular accumulation of the copper complex: accumulated almost entirely in the nuclear chromatin
thymocytes
  influence on the membrane potential of thymocytes: hyperpolarization of the cell membranes
